≈ marks a conversion by molar mass, not a printed value. Square brackets hold non-standard residues; d marks the D form. Ends that are not written are not given here. Peptide text beside a SMILES is read from it.
Experiments:
[1] = system: SARS-CoV-2 (Wuhan) spike-pseudotyped virus; conditions: for EC50, entry of pseudotyped virus: HEK293T-ACE2 cells incubated with agent prior to pseudotyped virus
in vitro [2] = conditions: African green monkey; human
ELVIRA Flu A cells = conditions: 50 µg/mL
MDCK cells = conditions: 50 µg/mL
[3] = system: SARS-CoV-2 hCoV-19/New Zealand/NZ1_patient/2020; conditions: hCoV-19/New Zealand/NZ1 patient/2020, 72 h
SARS-CoV-2-Nluc = conditions: 72 h
[4] = system: SARS-CoV-2 hCoV-19/New Zealand/NZ1_patient/2020; conditions: hCoV-19/New Zealand/NZ1 patient/2020, 72 h; remark: listed apart in the source
in vitro [5] = conditions: African green monkey
[6] = system: SARS-CoV-2 hCoV-19/New Zealand/NZ1_patient/2020; type: cell-based
VSV-g-pseudotyped virus = type: cell-based; conditions: virus exposed to agent 1 h, then HEK293T-hACE2 cells
[7] = system: SARS-CoV-2 γ spike-pseudotyped virus; type: cell-based; conditions: virus exposed to agent 1 h, then HEK293T-hACE2 cells
[8] = system: authentic SARS-CoV-2 virions; conditions: 100 µg/mL, 1 h
[9] = system: binding of the SARS-CoV-2 RBD to its human ACE2 receptor; conditions: cited from earlier work
[10] = biological target: binding between SARS-CoV-2 Wuhan RBD-Fc and hACE2-AP (UniProt P0DTC2+Q9BYF1); design: species or system SARS-CoV-2; human
binding between SARS-CoV-2 Wuhan RBD-Fc and hACE2-AP, sequence (Q9BYF1 18-740, one chain of several): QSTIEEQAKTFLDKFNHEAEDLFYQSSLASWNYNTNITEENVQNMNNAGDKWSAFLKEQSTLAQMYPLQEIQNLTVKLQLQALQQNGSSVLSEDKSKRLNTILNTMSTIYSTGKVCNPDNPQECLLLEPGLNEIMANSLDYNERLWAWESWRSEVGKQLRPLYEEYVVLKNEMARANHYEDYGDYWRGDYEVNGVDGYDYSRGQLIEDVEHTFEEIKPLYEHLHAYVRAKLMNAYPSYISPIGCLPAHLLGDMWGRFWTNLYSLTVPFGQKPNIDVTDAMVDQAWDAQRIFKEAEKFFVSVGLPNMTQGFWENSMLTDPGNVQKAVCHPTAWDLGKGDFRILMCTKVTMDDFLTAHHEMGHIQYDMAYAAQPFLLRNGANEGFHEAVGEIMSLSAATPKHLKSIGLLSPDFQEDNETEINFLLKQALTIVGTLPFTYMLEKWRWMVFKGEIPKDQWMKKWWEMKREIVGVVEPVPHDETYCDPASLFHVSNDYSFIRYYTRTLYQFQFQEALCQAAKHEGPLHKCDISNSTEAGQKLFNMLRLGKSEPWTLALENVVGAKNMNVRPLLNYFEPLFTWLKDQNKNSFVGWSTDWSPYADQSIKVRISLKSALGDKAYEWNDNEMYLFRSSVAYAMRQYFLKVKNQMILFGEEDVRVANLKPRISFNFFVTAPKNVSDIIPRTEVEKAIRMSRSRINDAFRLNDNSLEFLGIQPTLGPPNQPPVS

Molecule: CC[C@@H](C)[C@@H](N)C(=O)N[C@H](Cc1c[nH]c2ccccc12)C(=O)N[C@H](CC(C)C)C(=O)N[C@H](CCCNC(=N)N)C(=O)N[C@H](CC(C)C)C(=O)N[C@H](CCCCN)C(=O)N[C@@H](C(=O)N[C@@H](C(=O)N[C@H](CC(C)C)C(=O)N[C@H](CCCCN)C(=O)N[C@H](CCCNC(=N)N)C(=O)N[C@H](CCCCN)C(N)=O)C(C)C)C(C)C [D-3006, iwlrlkvvlkrk-NH2] (H-[dI][dW][dL][dR][dL][dK][dV][dV][dL][dK][dR][dK]-NH2)
- EC50, entry of pseudotyped virus [1]: 5.84 µg/mL
- CC50 at 48 h (in vitro [2]): > 100 µg/mL
- cell viability (ELVIRA Flu A cells): did not affect the viability
- cell viability (MDCK cells): did not affect the viability
- EC50 VeroE6/TMPRSS2 [3]: 5.37 µg/mL (≈ 3.46 µM)
- EC50 (SARS-CoV-2-Nluc): 5.4 µg/mL (≈ 3.48 µM)
- EC50 Vero [4]: 1.57 µg/mL (≈ 1.01 µM)
- CC50 (in vitro [5]): 430 µg/mL

Molecule: CC[C@@H](C)[C@@H](NC(=O)[C@@H](CCCCN)NC(=O)[C@@H](CC(C)C)NC(=O)[C@H](N)C(C)C)C(=O)N[C@H](CCCCN)C(=O)N[C@@H](C(=O)N[C@H](CCCCN)C(=O)N[C@@H](C(=O)N[C@H](Cc1c[nH]c2ccccc12)C(=O)N[C@@H](C(=O)N[C@@H](C(=O)N[C@H](CCCCN)C(N)=O)C(C)C)C(C)C)[C@H](C)CC)C(C)C [D-3007, vlkikvkiwvvk-NH2] (H-[dV][dL][dK][dI][dK][dV][dK][dI][dW][dV][dV][dK]-NH2)
- EC50 VeroE6/TMPRSS2 [3]: 30.53 µg/mL (≈ 21 µM)
- EC50 Vero [4]: 23.86 µg/mL (≈ 16.4 µM)
- CC50 (in vitro [5]): 708 µg/mL

Molecule: CC[C@@H](C)[C@@H](NC(=O)[C@@H](C)NC(=O)[C@@H](CCCNC(=N)N)NC(=O)[C@@H](Cc1c[nH]c2ccccc12)NC(=O)[C@@H](CCC(N)=O)NC(=O)[C@H](N)C(C)C)C(=O)N[C@H](CCCNC(=N)N)C(=O)N[C@@H](C(=O)N[C@H](CCCNC(=N)N)C(=O)N[C@@H](C(=O)N[C@@H](C(=O)N[C@H](CCCNC(=N)N)C(N)=O)[C@H](C)CC)C(C)C)C(C)C [DJK-5, vqwrairvrvir-NH2] (H-[dV][dQ][dW][dR][dA][dI][dR][dV][dR][dV][dI][dR]-NH2)
- EC50 VeroE6/TMPRSS2 [3]: 29.31 µg/mL (≈ 18.9 µM)
- EC50 Vero [4]: 25.16 µg/mL (≈ 16.2 µM)
- CC50 (in vitro [5]): 517 µg/mL

Molecule: CCC(CC)COC(=O)[C@H](C)N[P@](=O)(OC[C@H]1O[C@@](C#N)(c2ccc3c(N)ncnn23)[C@H](O)[C@@H]1O)Oc1ccccc1 [Remdesivir, remdesivir, reference compound]
- CC50 (in vitro [5]): > 100 µM
- inhibition of SARS-CoV-2 replication [6]: 98%

Molecule: CC[C@H](C)[C@H](NC(=O)CN)C(=O)NCC(=O)N[C@@H](C)C(=O)N[C@H](C(=O)N[C@@H](CC(C)C)C(=O)N[C@@H](CCCCN)C(=O)N[C@H](C(=O)N[C@@H](CC(C)C)C(=O)N[C@H](C(=O)N[C@H](C(=O)NCC(=O)N[C@@H](CC(C)C)C(=O)N1CCC[C@H]1C(=O)N[C@@H](C)C(=O)N[C@@H](CC(C)C)C(=O)N[C@H](C(=O)N[C@@H](CO)C(=O)N[C@@H](Cc1c[nH]c2ccccc12)C(=O)N[C@H](C(=O)N[C@@H](CCCCN)C(=O)N[C@@H](CCCNC(=N)N)C(=O)N[C@@H](CCCCN)C(=O)N[C@@H](CCCNC(=N)N)C(=O)N[C@@H](CCC(N)=O)C(=O)N[C@@H](CCC(N)=O)C(N)=O)[C@@H](C)CC)[C@@H](C)CC)[C@@H](C)O)[C@@H](C)O)C(C)C)C(C)C [melittin]
- NT50 (VSV-g-pseudotyped virus): 5.51 µg/mL
- EC50, entry of pseudotyped virus [1]: 13.2 µg/mL
- NT50 ([1]; agent incubated with pseudotyped virus 1 h, then HEK293T-hACE2 cells): 12.5 µg/mL
- viability (in vitro [2]): 51.7%
- NT50 [7]: 11.6 µg/mL
- mean number of intact virus particles per field [8]: 1.3

Molecule: HNP1
- affinity, interference with binding of SARS-CoV-2 RBD to human ACE2 [9]: 160 nM

Molecule: LL-37
- affinity, interference with binding of SARS-CoV-2 RBD to human ACE2 [9]: 25.5 nM

Molecule: VRLIVAVRIWRR-NH2 [IDR-1018]
- EC50 VeroE6/TMPRSS2 [3]: 28.72 µg/mL
- EC50 Vero [4]: 21.79 µg/mL
- CC50 (in vitro [5]): 686 µg/mL

Molecule: shACE2
- NT50 (VSV-g-pseudotyped virus): > 100 µg/mL
- IC50, inhibition of hACE2-RBD binding [10]: 6.6 µg/mL
- inhibition of SARS-CoV-2 replication [6]: 72%
